Our source for the inhibition values is patent US5475132A, “Antifungal agents based on amides containing a phenyl group” (Rhone-Poulenc Agrochimie, priority 1988, dated 1995).

One assay has as its system Phytophthora citrophthora. Description: Example B3: action on phytopathogenic soil fungi, growth on agar in Petri dishes. The following applies: 120 h, 30 ppm, agar medium, 22° C., 5 days, read-out: inhibition of the development of the fungus. In kind it is cell-based.
The inhibition is the change of the read-out against control, counted positive when it falls. As for `COc1ccc(-c2c(C(=O)N3CCOCC3)sc3c(C)cccc23)cc1OC` [Compound 127], the inhibition at 30 ppm was at least 80%.
Same read-out and setting: the same measure for `COc1ccc(-c2nc(-c3ccc(F)cc3)ccc2C(=O)N2CCOCC2)cc1OC` [Compound 349]: at least 80%.
As for `O=C(c1ccc(-c2ccc(F)cc2)cc1-c1ccc2c(c1)OCO2)N1CCOCC1` [Compound 229], the inhibition at 30 ppm is at least 80%.
Consider `COc1ccc(-c2c(C(=O)N3CCOCC3)sc3c(-c4ccccc4)cccc23)cc1OC` [Compound 126], for which the inhibition at 30 ppm was at least 80%.
Same read-out and setting: the same measure for `COc1ccc(-c2nc(-c3cccc4ccccc34)ccc2C(=O)N2CCOCC2)cc1OC` [Compound 3114]: at least 80%; for `COc1ccc(-c2cc(-c3ccsc3)ccc2C(=O)N2CCOCC2)cc1OC` [Compound 238]: at least 80%.
Same read-out and setting: with `COc1ccc(-c2nc(Oc3ccc(C)cc3)ncc2C(=O)N2CCOCC2)cc1OC` [Compound 433, 4-(3,4-dimethoxyphenyl)-2-(4-methylphenoxy)-5-morpholinocarbonylpyrimidine] the figure was at least 80%.
On the same count and under the same terms, with `COc1ccc(-c2nc(SCc3ccccc3)ncc2C(=O)N2CCOCC2)cc1OC` [Compound 434] the figure was at least 80%; with `COc1ccc(-c2nc(Oc3ccc(Br)cc3)ncc2C(=O)N2CCOCC2)cc1OC` [Compound 438], at least 80%.
As to `COc1ccc(-c2nc(-c3ccc(Cl)cc3)ccc2C(=O)N(C)Cc2ccco2)cc1OC` [Compound 378], the inhibition at 30 ppm is at least 80%.
As for `COc1ccc(-c2nc(-c3ccc(Cl)cc3)ccc2C(=O)N(C)OC)cc1OC` [Compound 394], the inhibition at 30 ppm is at least 80%.
The same measure, in the same setting: the same measure for `CCN(CC)C(=O)c1ccc(-c2ccc(Cl)cc2)nc1-c1ccc(OC)c(OC)c1` [Compound 364]: at least 80%.
In the case of `CCN(CC)C(=O)c1ccc(-c2ccsc2)nc1-c1ccc(OC)c(OC)c1` [Compound 3119], the inhibition at 30 ppm is at least 80%.
For `COc1ccc(-c2nc(-c3ccccc3Cl)ccc2C(=O)N2CCOCC2)cc1OC` [Compound 392], the inhibition at 30 ppm was at least 80%.
On the same count and under the same terms, the same measure for `COc1ccc(-c2c(C(=O)N3CCOCC3)sc3c(NC(C)=O)cccc23)cc1OC` [Compound 132]: at least 80%; for `COc1ccc(-c2nc(-c3ccc(C4CC4(Cl)Cl)cc3)ccc2C(=O)N2CCOCC2)cc1OC` (stereo not drawn) [Compound 355]: at least 80%; for `COc1ccc(-c2c(C(=O)N3CCOCC3)sc3ccc(NC(=O)C(F)(F)F)cc23)cc1OC` [Compound 116]: at least 80%.
Same read-out and setting: with `COc1ccc(-c2cc(-c3ccc(Cl)cc3)ccc2C(=O)N2CCOCC2)cc1OC` [Compound 237] the figure was at least 80%.
Take `CCN(CC)C(=O)c1cnc(-c2cccc(C(F)(F)F)c2)nc1-c1ccc(OC)c(OC)c1` [Compound 429]: the inhibition at 30 ppm was at least 80%.
Still for that read-out and setting: with `COc1ccc(-c2c(C(=O)N3CCOCC3)sc3ccccc23)cc1OC` [Compound 118] the figure was at least 80%; with `COc1ccc(-c2c(C(=O)N3CCOCC3)sc3c(Br)cccc23)cc1OC` [Compound 123], at least 80%; with `COc1ccc(-c2nc(-c3ccsc3)ccc2C(=O)N2CCOCC2)cc1OC` [Compound 3112], at least 80%.
Still for that read-out and setting: with `CCN(C)C(=O)c1ccc(-c2ccc(F)cc2)cc1-c1ccc2c(c1)OCO2` [Compound 228] the figure was at least 80%; with `COCCN(C)C(=O)c1ccc(-c2ccccc2)nc1-c1ccc(OC)c(OC)c1` [Compound 354], at least 80%; with `COc1ccc(-c2nc(-c3ccc(Cl)cc3)ccc2C(=O)N2CCOCC2)cc1OC` [Compound 345], at least 80%.
On the same count and under the same terms, the same measure for `COc1ccc(-c2nc(-c3ccccc3)ncc2C(=O)N2CCOCC2)cc1OC` [Compound 414]: at least 80%.
`CCN(C)C(=O)c1sc2ccc(F)cc2c1-c1ccc(OC)c(OC)c1` [Compound 167]: the inhibition at 30 ppm is at least 80%.
The same measure, in the same setting: the same measure for `COc1ccc(-c2nc(-c3ccc(Cl)cc3)ccc2C(=O)N2CCCCC2)cc1OC` [Compound 376]: at least 80%; for `COc1ccc(-c2ccc(C(=O)N3CCOCC3)c(-c3ccc(OC)c(OC)c3)n2)cc1` [Compound 389]: at least 80%.
As for `COc1ccc(-c2nc(Oc3ccc(C(F)(F)F)cc3)ncc2C(=O)N2CCOCC2)cc1OC` [Compound 442], the inhibition at 30 ppm was at least 80%.
Still for that read-out and setting: the same measure for `COc1ccc(-c2nc(-c3ccco3)ccc2C(=O)N2CCOCC2)cc1OC` [Compound 3116]: at least 80%; for `CCN(CC)C(=O)c1ccc(Br)cc1-c1ccc(OC)c(OC)c1` [Compound 205]: at least 80%; for `COc1ccc(-c2nc(-c3ccc(Br)cc3)ccc2C(=O)N2CCOCC2)cc1OC` [Compound 385]: at least 80%.
As for `COCCN(C)C(=O)c1sc2ccc(F)cc2c1-c1ccc(OC)c(OC)c1` [Compound 169], the inhibition at 30 ppm was at least 80%.
The same measure, in the same setting: the same measure for `COc1ccc(-c2cc(Cl)ccc2C(=O)N2CCOCC2)cc1OC` [Compound 208]: at least 80%; for `COc1ccc(-c2c(C(=O)N3CCOCC3)sc3c(N)cccc23)cc1OC` [Compound 121]: at least 80%; for `CCN(C)C(=O)c1ccc(-c2ccc(Br)cc2)nc1-c1ccc(OC)c(OC)c1` [Compound 390]: at least 80%.
The same measure, in the same setting: with `COc1ccc(-c2nc(Oc3ccc(Cl)cc3)ncc2C(=O)N2CCOCC2)cc1OC` [Compound 437] the figure was at least 80%; with `CCN(CC)C(=O)c1sc2ccccc2c1-c1ccc(OC)c(OC)c1` [Compound 107, 2-(N,N-Diethylcarboxamide)-3-(3,4-dimethoxyphenyl)benzothiophene], at least 80%; with `COc1ccc(-c2c(C(=O)N3CCOCC3)sc3ccc(F)cc23)cc1OC` [Compound 117], at least 80%.
Same read-out and setting: with `COc1ccc(-c2c(C(=O)N3CCOCC3)sc3ccc(C(F)(F)F)cc23)cc1OC` [Compound 133] the figure was at least 80%; with `CCN(C)C(=O)c1c(-c2ccc(OC)c(OC)c2)cc(-c2ccccc2)nc1C` [Compound 506], at least 80%.
`COc1ccc(-c2c(C(=O)N3CCCCC3)sc3ccccc23)cc1OC` [Compound 153]: the inhibition at 30 ppm was at least 80%.
On the same count and under the same terms, with `COc1ccc(-c2c(C(=O)N3CCOCC3)sc3cccc(F)c23)cc1OC` [Compound 129] the figure was at least 80%; with `CCN(C)C(=O)c1ccc(-c2ccccc2)nc1-c1ccc(OC)c(OC)c1` [Compound 369], at least 80%.
Same read-out and setting: the same measure for `COc1ccc(-c2nc(-c3ccccc3)ccc2C(=O)N(C)C)cc1OC` [Compound 370]: at least 80%; for `COCCN(C)C(=O)c1ccc(-c2ccc(Br)cc2)nc1-c1ccc(OC)c(OC)c1` [Compound 393]: at least 80%.
The same measure, in the same setting: with `COCCN(C)C(=O)c1ccc(-c2ccc(F)cc2)nc1-c1ccc(OC)c(OC)c1` [Compound 353] the figure was at least 80%.
Turning to `COc1ccc(C2=C(C(=O)N3CCOCC3)Cc3cc(OC)c(OC)cc32)cc1OC` [Compound 112, 2-Morpholinocarbonyl-3-(3,4-dimethoxyphenyl)-5,6-methoxyindene], the inhibition at 30 ppm is at least 80%.
Still for that read-out and setting: with `COc1ccc(-c2c(C(=O)N3CCOCC3)n(C)c3ccc([N+](=O)[O-])cc23)cc1OC` [Compound 141] the figure was at least 80%; with `CCN(CC)C(=O)c1cnc(-c2ccc(Br)cc2)nc1-c1ccc(OC)c(OC)c1` [Compound 430], at least 80%.
On the same count and under the same terms, the same measure for `COc1ccc(-c2cc(Br)ccc2C(=O)N2CCOCC2)cc1OC` [Compound 222]: at least 80%; for `COc1ccc(-c2nc(-c3ccc(C(C)C)cc3)ccc2C(=O)N2CCOCC2)cc1OC` [Compound 356]: at least 80%; for `COCCN(C)C(=O)c1ccc(Cl)cc1-c1ccc(OC)c(OC)c1` [Compound 210]: at least 80%.
On the same count and under the same terms, the same measure for `COCCN(C)C(=O)c1cnc(-c2ccccc2)nc1-c1ccc(OC)c(OC)c1` [Compound 416]: at least 80%; for `COc1ccc(-c2nc(-c3cccs3)ccc2C(=O)N2CCOCC2)cc1OC` [Compound 3113]: at least 80%; for `COc1ccc(-c2nc(Sc3ccc(F)cc3)ncc2C(=O)N2CCOCC2)cc1OC` [Compound 449]: at least 80%.
With `COc1ccc(-c2nc(-c3ccc(Cl)cc3)ccc2C(=O)N2CCC(O)CC2)cc1OC` [Compound 377], the inhibition at 30 ppm is at least 80%.
As for `COc1ccc(-c2nc(N3CCCCC3)ncc2C(=O)N2CCOCC2)cc1OC` [Compound 458], the inhibition at 30 ppm is at least 80%.
Still for that read-out and setting: with `COc1ccc(-c2c(C(=O)N3CCOCC3)sc3ccc(Br)cc23)cc1OC` [Compound 114] the figure was at least 80%; with `COc1ccc(-c2nc(-c3ccc(Br)cc3)ccc2C(=O)N(C)CCOC(C)=O)cc1OC` [Compound 366], at least 80%; with `COc1ccc(-c2nc(C=C(C)C)ccc2C(=O)N2CCOCC2)cc1OC` [Compound 3111], at least 80%.
Same read-out and setting: the same measure for `COc1ccc(-c2c(C(=O)N3CCOCC3)cc(-c3ccc(F)cc3)n2C)cc1OC` [Compound 607, 5-(4-fluorophenyl)-2-(3,4-dimethoxyphenyl)-1-methyl-3-(morpholinocarbonyl)pyrrole]: at least 80%; for `COc1ccc(-c2c(C(=O)N(C)C)sc3ccccc23)cc1OC` [Compound 155]: at least 80%; for `CCN(C)C(=O)c1ccc(-c2ccc(F)cc2)nc1-c1ccc(OC)c(OC)c1` [Compound 350]: at least 80%.
Same read-out and setting: the same measure for `COc1ccc(-c2nc(-c3ccc(Cl)cc3)ccc2C(=O)N(C)CCO)cc1OC` [Compound 383]: at least 80%.
As to `COc1ccc(-c2c(C(=O)N3CCOCC3)sc3ccc(-c4ccccc4)cc23)cc1OC` [Compound 135], the inhibition at 30 ppm was at least 80%.
For the compound `COCCN(C)C(=O)c1ccc(-c2ccc(Cl)cc2)nc1-c1ccc(OC)c(OC)c1` [Compound 379], the inhibition at 30 ppm was at least 80%.

Still in this assay, the particulars now being: 120 h, read-out: inhibition of the development of the fungus.
For `COc1ccc(-c2c(C(=O)N3CCC(=O)CC3)sc3ccccc23)cc1OC` [Compound 162], the inhibition at 30 ppm was at least 80%.
